Data from the supplement of paper PMC4862054.

Columns and labels:
Test in all cases: normalised viability (% of control), CellTiter-Blue; higher = more viable cells (about 100 = DMSO control)
Details in all cases: incubation time: 72 h
MDA-MB-453 [1] = test system: MDA-MB-453
Protocol: (§1)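 DSRT, CellTiter-Blue viability, 72 h incubation. Signal is normalised to DMSO and benzethonium chloride controls. Value is the normalised response at dose 6.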

DU-4475 [2] = test system: DU-4475
Protocol: as §1

HDQ-P1 [3] = test system: HDQ-P1
Protocol: as §1

CAL-51 [4] = test system: CAL-51
Protocol: as §1

CAL-85-1 [5] = test system: CAL-85-1
Protocol: as §1

CAL-148 [6] = test system: CAL-148
Protocol: as §1

MDA-MB-453 [7] = test system: MDA-MB-453; remark: listed apart in the source
Protocol: (§2)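 DSRT, CellTiter-Blue viability, 72 h incubation. Signal is normalised to DMSO and benzethonium chloride controls. Value is the normalised response at dose 9.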

DU-4475 [8] = test system: DU-4475; remark: listed apart in the source
Protocol: as §2

HDQ-P1 [9] = test system: HDQ-P1; remark: listed apart in the source
Protocol: as §2

CAL-51 [10] = test system: CAL-51; remark: listed apart in the source
Protocol: as §2

CAL-85-1 [11] = test system: CAL-85-1; remark: listed apart in the source
Protocol: as §2

CAL-148 [12] = test system: CAL-148; remark: listed apart in the source
Protocol: as §2

MDA-MB-453 [13] = test system: MDA-MB-453; remark: listed apart in the source
Protocol: (§3)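 DSRT, CellTiter-Blue viability, 72 h incubation. Signal is normalised to DMSO and benzethonium chloride controls. Value is the normalised response at dose 3.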

SK-BR-3 = test system: SK-BR-3
Protocol: as §3

HCC1599 = test system: HCC1599
Protocol: as §3

BT-549 = test system: BT-549
Protocol: as §3

MDA-MB-231 = test system: MDA-MB-231
Protocol: as §3

BT-474 = test system: BT-474
Protocol: as §3

HCC1937 = test system: HCC1937
Protocol: as §3

DU-4475 [14] = test system: DU-4475; remark: listed apart in the source
Protocol: as §3

MDA-MB-468 = test system: MDA-MB-468
Protocol: as §3

MDA-MB-436 = test system: MDA-MB-436
Protocol: as §3

HCC1143 = test system: HCC1143
Protocol: as §3

HDQ-P1 [15] = test system: HDQ-P1; remark: listed apart in the source
Protocol: as §3

CAL-51 [16] = test system: CAL-51; remark: listed apart in the source
Protocol: as §3

CAL-120 = test system: CAL-120
Protocol: as §3

CAL-85-1 [17] = test system: CAL-85-1; remark: listed apart in the source
Protocol: as §3

Hs578T = test system: Hs578T
Protocol: as §3

CAL-148 [18] = test system: CAL-148; remark: listed apart in the source
Protocol: as §3

MFM-223 = test system: MFM-223
Protocol: as §3

Nc1ccccc1NC(=O)c1ccc(CNC(=O)OCc2cccnc2)cc1 [Entinostat]
normalised viability (MDA-MB-453 [1]; 300 nM): 103%
normalised viability (DU-4475 [2]; 300 nM): 97.9%
normalised viability (HDQ-P1 [3]; 300 nM): 72%
normalised viability (CAL-51 [4]; 300 nM): 114%
normalised viability (CAL-85-1 [5]; 300 nM): 109%
normalised viability (CAL-148 [6]; 300 nM): 86.9%
normalised viability (MDA-MB-453 [7]; 10000 nM): 11.2%
normalised viability (DU-4475 [8]; 10000 nM): 0.48%
normalised viability (HDQ-P1 [9]; 10000 nM): 71.2%
normalised viability (CAL-51 [10]; 10000 nM): 29.6%
normalised viability (CAL-85-1 [11]; 10000 nM): 20.7%
normalised viability (CAL-148 [12]; 10000 nM): 9.38%
normalised viability (MDA-MB-453 [13]; 10 nM): 120%
normalised viability (SK-BR-3; 100 nM): 85.6%
normalised viability (HCC1599; 100 nM): 93.3%
normalised viability (BT-549; 100 nM): 91.5%
normalised viability (MDA-MB-231; 100 nM): 97.1%
normalised viability (BT-474; 100 nM): 106%
normalised viability (HCC1937; 100 nM): 104%
normalised viability (DU-4475 [14]; 10 nM): 117%
normalised viability (MDA-MB-468; 100 nM): 110%
normalised viability (MDA-MB-436; 100 nM): 83.5%
normalised viability (HCC1143; 100 nM): 82.2%
normalised viability (HDQ-P1 [15]; 10 nM): 102%
normalised viability (CAL-51 [16]; 10 nM): 114%
normalised viability (CAL-120; 100 nM): 85.4%
normalised viability (CAL-85-1 [17]; 10 nM): 96.7%
normalised viability (Hs578T; 100 nM): 93.3%
normalised viability (CAL-148 [18]; 10 nM): 93.3%
normalised viability (MFM-223; 100 nM): 100%

CC(=O)Nc1cccc(-n2c(=O)n(C3CC3)c(=O)c3c(Nc4ccc(I)cc4F)n(C)c(=O)c(C)c32)c1
normalised viability (MDA-MB-453 [1]; 7.5 nM): 99.6%
normalised viability (DU-4475 [2]; 7.5 nM): 0.58%
normalised viability (HDQ-P1 [3]; 7.5 nM): 54.1%
normalised viability (CAL-51 [4]; 7.5 nM): 81.6%
normalised viability (CAL-85-1 [5]; 7.5 nM): 76.2%
normalised viability (CAL-148 [6]; 7.5 nM): 90.7%
normalised viability (MDA-MB-453 [7]; 250 nM): 50.9%
normalised viability (DU-4475 [8]; 250 nM): -1.53%
normalised viability (HDQ-P1 [9]; 250 nM): 63.6%
normalised viability (CAL-51 [10]; 250 nM): 60.5%
normalised viability (CAL-85-1 [11]; 250 nM): 31.2%
normalised viability (CAL-148 [12]; 250 nM): 87.6%
normalised viability (MDA-MB-453 [13]; 0.25 nM): 106%
normalised viability (SK-BR-3; 2.5 nM): 92.7%
normalised viability (HCC1599; 2.5 nM): 84.6%
normalised viability (BT-549; 2.5 nM): 104%
normalised viability (MDA-MB-231; 2.5 nM): 57.7%
normalised viability (BT-474; 2.5 nM): 119%
normalised viability (HCC1937; 2.5 nM): 102%
normalised viability (DU-4475 [14]; 0.25 nM): 101%
normalised viability (MDA-MB-468; 2.5 nM): 105%
normalised viability (MDA-MB-436; 2.5 nM): 92.8%
normalised viability (HCC1143; 2.5 nM): 86.7%
normalised viability (HDQ-P1 [15]; 0.25 nM): 103%
normalised viability (CAL-51 [16]; 0.25 nM): 90.4%
normalised viability (CAL-120; 2.5 nM): 99.4%
normalised viability (CAL-85-1 [17]; 0.25 nM): 97.3%
normalised viability (Hs578T; 2.5 nM): 94.9%
normalised viability (CAL-148 [18]; 0.25 nM): 107%
normalised viability (MFM-223; 2.5 nM): 90.6%

CC1=C(/C=C/C(C)=C/C=C/C(C)=C/C(=O)O)C(C)(C)CCC1 [Tretinoin]
normalised viability (MDA-MB-453 [1]; 300 nM): 91.5%
normalised viability (DU-4475 [2]; 300 nM): 91.1%
normalised viability (HDQ-P1 [3]; 300 nM): 94.9%
normalised viability (CAL-51 [4]; 300 nM): 96.2%
normalised viability (CAL-85-1 [5]; 300 nM): 96.6%
normalised viability (CAL-148 [6]; 300 nM): 74%
normalised viability (MDA-MB-453 [7]; 10000 nM): 96.9%
normalised viability (DU-4475 [8]; 10000 nM): 94.3%
normalised viability (HDQ-P1 [9]; 10000 nM): 122%
normalised viability (CAL-51 [10]; 10000 nM): 98%
normalised viability (CAL-85-1 [11]; 10000 nM): 90.6%
normalised viability (CAL-148 [12]; 10000 nM): 78.3%
normalised viability (MDA-MB-453 [13]; 10 nM): 92.9%
normalised viability (SK-BR-3; 100 nM): 87.1%
normalised viability (HCC1599; 100 nM): 92.2%
normalised viability (BT-549; 100 nM): 107%
normalised viability (MDA-MB-231; 100 nM): 94%
normalised viability (BT-474; 100 nM): 122%
normalised viability (HCC1937; 100 nM): 98.9%
normalised viability (DU-4475 [14]; 10 nM): 100%
normalised viability (MDA-MB-468; 100 nM): 115%
normalised viability (MDA-MB-436; 100 nM): 99.5%
normalised viability (HCC1143; 100 nM): 86.2%
normalised viability (HDQ-P1 [15]; 10 nM): 125%
normalised viability (CAL-51 [16]; 10 nM): 100%
normalised viability (CAL-120; 100 nM): 77.7%
normalised viability (CAL-85-1 [17]; 10 nM): 99.2%
normalised viability (Hs578T; 100 nM): 91.5%
normalised viability (CAL-148 [18]; 10 nM): 92.1%
normalised viability (MFM-223; 100 nM): 86.2%

CC[C@@H]1C(=O)N(C)c2cnc(Nc3ccc(C(=O)NC4CCN(C)CC4)cc3OC)nc2N1C1CCCC1 [BI 2536]
normalised viability (MDA-MB-453 [1]; 30 nM): 28.4%
normalised viability (DU-4475 [2]; 30 nM): 18.1%
normalised viability (HDQ-P1 [3]; 30 nM): 43.6%
normalised viability (CAL-51 [4]; 30 nM): 25.8%
normalised viability (CAL-85-1 [5]; 30 nM): 45.3%
normalised viability (CAL-148 [6]; 30 nM): 25.5%
normalised viability (MDA-MB-453 [7]; 1000 nM): 25.2%
normalised viability (DU-4475 [8]; 1000 nM): 44.9%
normalised viability (HDQ-P1 [9]; 1000 nM): 86.2%
normalised viability (CAL-51 [10]; 1000 nM): 8.2%
normalised viability (CAL-85-1 [11]; 1000 nM): 61.6%
normalised viability (CAL-148 [12]; 1000 nM): 44.3%
normalised viability (MDA-MB-453 [13]; 1 nM): 83.2%
normalised viability (SK-BR-3; 10 nM): 15.8%
normalised viability (HCC1599; 10 nM): 90.9%
normalised viability (BT-549; 10 nM): 36.9%
normalised viability (MDA-MB-231; 10 nM): 52.6%
normalised viability (BT-474; 10 nM): 44.4%
normalised viability (HCC1937; 10 nM): 25.9%
normalised viability (DU-4475 [14]; 1 nM): 91.7%
normalised viability (MDA-MB-468; 10 nM): 48.5%
normalised viability (MDA-MB-436; 10 nM): 77.8%
normalised viability (HCC1143; 10 nM): 62.8%
normalised viability (HDQ-P1 [15]; 1 nM): 102%
normalised viability (CAL-51 [16]; 1 nM): 89.4%
normalised viability (CAL-120; 10 nM): 34.1%
normalised viability (CAL-85-1 [17]; 1 nM): 90%
normalised viability (Hs578T; 10 nM): 83.5%
normalised viability (CAL-148 [18]; 1 nM): 105%
normalised viability (MFM-223; 10 nM): 41.8%
